Each structure is given as a SMILES string.

The test system of this experiment is MV-4-11 cells. The experiment in a line: Gene expression microarray analysis (Affymetrix PrimeView) and GSEA. It is filed as cell-based, human. Further details: RFU PODN (11730768_x_at) / Fold change /veh PODN (11730768_x_at) / RFU LINC00158 (11744669_a_at) / Fold change /veh LINC00158 (11744669_a_at) / RFU DUSP10 (11751237_a_at) / Fold change /veh DUSP10 (11751237_a_at) / RFU ID3 (11757404_x_at) / Fold change /veh ID3 (11757404_x_at) / RFU PLEKHG5 (11737974_s_at) / Fold change /veh PLEKHG5 (11737974_s_at) / RFU LRRC4B (11730491_at) / Fold change /veh LRRC4B (11730491_at) / RFU GIMAP4 (11747438_a_at) / Fold change /veh GIMAP4 (11747438_a_at) / RFU KRT8 (11758183_x_at) / Fold change /veh KRT8 (11758183_x_at) / RFU CNN1 (11734310_a_at) / Fold change /veh CNN1 (11734310_a_at) / RFU VPS37D (11726825_at) / Fold change /veh VPS37D (11726825_at) / RFU C10orf10 (11716522_x_at) / Fold change /veh C10orf10 (11716522_x_at) / RFU KIR2DL2 /// KIR2DL4 /// KIR2DL5A /// KIR2DL5B /// KIR2DS1 /// KIR2DS2 /// KIR2DS3 /// KIR2DS4 /// KIR3DL3 /// KIR3DL3 /// KIR3DS1 (11738374_at) / Fold change /veh KIR2DL2 /// KIR2DL4 /// KIR2DL5A /// KIR2DL5B /// KIR2DS1 /// KIR2DS2 /// KIR2DS3 /// KIR2DS4 /// KIR3DL3 /// KIR3DL3 /// KIR3DS1 (11738374_at) / RFU C1QL1 (11718748_at) / Fold change /veh C1QL1 (11718748_at) / RFU TMPRSS4 (11747572_a_at) / Fold change /veh TMPRSS4 (11747572_a_at) / RFU HAMP (11756126_x_at) / Fold change /veh HAMP (11756126_x_at) / RFU RNFT2 (11725882_a_at) / Fold change /veh RNFT2 (11725882_a_at) / RFU NR4A2 (11747474_a_at) / Fold change /veh NR4A2 (11747474_a_at) / RFU ABCC12 (11746883_a_at) / Fold change /veh ABCC12 (11746883_a_at) / RFU TMEM136 (11760407_x_at) / Fold change /veh TMEM136 (11760407_x_at) / RFU CLDN22 /// WWC2 (11732394_at) / Fold change /veh CLDN22 /// WWC2 (11732394_at) / RFU HLA-DPB1 (11760878_x_at) / Fold change /veh HLA-DPB1 (11760878_x_at) / RFU SPINT1 (11716480_a_at) / Fold change /veh SPINT1 (11716480_a_at) / RFU GAP43 (11754022_s_at) / Fold change /veh GAP43 (11754022_s_at) / RFU A4GNT (11735810_at) / Fold change /veh A4GNT (11735810_at) / RFU PRB3 (11715151_x_at) / Fold change /veh PRB3 (11715151_x_at) / RFU TUBB4B (11761932_at) / Fold change /veh TUBB4B (11761932_at) / RFU CAPN14 (11732068_a_at) / Fold change /veh CAPN14 (11732068_a_at) / RFU TMCC2 (11721928_a_at) / Fold change /veh TMCC2 (11721928_a_at) / RFU IRGQ (11745062_a_at) / Fold change /veh IRGQ (11745062_a_at) / RFU FAM174B (11720279_a_at) / Fold change /veh FAM174B (11720279_a_at) / RFU TMPRSS4 (11748680_a_at) / Fold change /veh TMPRSS4 (11748680_a_at) / RFU FAM212B (11763350_a_at) / Fold change /veh FAM212B (11763350_a_at) / RFU PLEKHG5 (11743358_a_at) / Fold change /veh PLEKHG5 (11743358_a_at) / RFU ZSCAN30 (11745921_a_at) / Fold change /veh ZSCAN30 (11745921_a_at) / RFU CMKLR1 (11741424_a_at) / Fold change /veh CMKLR1 (11741424_a_at) / RFU LOC101060620 /// MAPK8IP1 (11723275_at) / Fold change /veh LOC101060620 /// MAPK8IP1 (11723275_at) / RFU SPTSSB (11747773_x_at) / Fold change /veh SPTSSB (11747773_x_at) / RFU PRSS12 (11739890_at) / Fold change /veh PRSS12 (11739890_at) / RFU BIN1 (11741810_x_at) / Fold change /veh BIN1 (11741810_x_at) / RFU WNT11 (11732464_a_at) / Fold change /veh WNT11 (11732464_a_at) / RFU C10orf10 (11716521_a_at) / Fold change /veh C10orf10 (11716521_a_at) / RFU C5orf56 (11738089_at) / Fold change /veh C5orf56 (11738089_at) / RFU CYB561 (11721691_x_at) / Fold change /veh CYB561 (11721691_x_at) / RFU ANKRD19P (11752326_a_at) / Fold change /veh ANKRD19P (11752326_a_at) / RFU OR2T12 /// OR2T33 /// OR2T8 (11738714_s_at) / Fold change /veh OR2T12 /// OR2T33 /// OR2T8 (11738714_s_at) / RFU VCAN (11748164_a_at) / Fold change /veh VCAN (11748164_a_at) / RFU JSRP1 (11732532_at) / Fold change /veh JSRP1 (11732532_at) / RFU KRTAP10-11 (11738290_x_at) / Fold change /veh KRTAP10-11 (11738290_x_at) / RFU MYO3A (11730013_a_at) / Fold change /veh MYO3A (11730013_a_at) / RFU EBF3 (11725865_a_at) / Fold change /veh EBF3 (11725865_a_at) / RFU CAMK2N1 (11719241_x_at) / Fold change /veh CAMK2N1 (11719241_x_at) / RFU C5orf56 (11738088_a_at) / Fold change /veh C5orf56 (11738088_a_at) / RFU OLFML3 (11715873_a_at) / Fold change /veh OLFML3 (11715873_a_at) / RFU LOC100653217 /// NTM (11731650_a_at) / Fold change /veh LOC100653217 /// NTM (11731650_a_at) / RFU MAPK11 (11762145_a_at) / Fold change /veh MAPK11 (11762145_a_at) / RFU FIZ1 (11724087_x_at) / Fold change /veh FIZ1 (11724087_x_at) / RFU OASL (11726364_x_at) / Fold change /veh OASL (11726364_x_at) / RFU SOX15 (11748057_x_at) / Fold change /veh SOX15 (11748057_x_at) / RFU CD79A (11719716_a_at) / Fold change /veh CD79A (11719716_a_at) / RFU HIST1H1D (11736915_at) / Fold change /veh HIST1H1D (11736915_at) / RFU CASKIN2 (11723855_a_at) / Fold change /veh CASKIN2 (11723855_a_at) / RFU LOC730098 (11760151_x_at) / Fold change /veh LOC730098 (11760151_x_at) / RFU OR4N2 (11742367_at) / Fold change /veh OR4N2 (11742367_at) / RFU PRRT2 (11749266_a_at) / Fold change /veh PRRT2 (11749266_a_at) / RFU SNX32 (11753110_a_at) / Fold change /veh SNX32 (11753110_a_at) / RFU CDHR5 (11726645_a_at) / Fold change /veh CDHR5 (11726645_a_at) / RFU RCAN1 (11760418_a_at) / Fold change /veh RCAN1 (11760418_a_at) / RFU FAM167A (11723789_a_at) / Fold change /veh FAM167A (11723789_a_at) / RFU FAM26E (11764081_at) / Fold change /veh FAM26E (11764081_at) / RFU ISYNA1 (11749810_s_at) / Fold change /veh ISYNA1 (11749810_s_at) / RFU ACY1 (11761880_at) / Fold change /veh ACY1 (11761880_at) / RFU 11764098_at / Fold change /veh 11764098_at / RFU SAMD14 (11745864_x_at) / Fold change /veh SAMD14 (11745864_x_at) / RFU NPB (11741838_a_at) / Fold change /veh NPB (11741838_a_at) / RFU TMPRSS6 (11731388_a_at) / Fold change /veh TMPRSS6 (11731388_a_at) / RFU KRTAP10-2 (11738614_at) / Fold change /veh KRTAP10-2 (11738614_at) / RFU ARHGAP8 /// PRR5-ARHGAP8 (11727945_x_at) / Fold change /veh ARHGAP8 /// PRR5-ARHGAP8 (11727945_x_at) / RFU KRTAP5-7 /// NADSYN1 (11734609_at) / Fold change /veh KRTAP5-7 /// NADSYN1 (11734609_at) / RFU RASL12 (11751679_a_at) / Fold change /veh RASL12 (11751679_a_at) / RFU CDKN2B (11736163_a_at) / Fold change /veh CDKN2B (11736163_a_at) / RFU PRF1 (11729649_at) / Fold change /veh PRF1 (11729649_at) / RFU, ZNF638 /// ZNF638-IT1 / Fold change vs veh, ZNF638 /// ZNF638-IT1 / RFU, PANK3 / Fold change vs veh, PANK3 / RFU, SH3YL1 / Fold change vs veh, SH3YL1 / RFU, ZEB2 / Fold change vs veh, ZEB2 / RFU, NRIP1 / Fold change vs veh, NRIP1 / RFU, PTTG1IP / Fold change vs veh, PTTG1IP / RFU, CAPN2 / Fold change vs veh, CAPN2 / RFU, MED14 / Fold change vs veh, MED14 / RFU, SNORA58 / Fold change vs veh, SNORA58 / RFU, C1orf63 / Fold change vs veh, C1orf63 / RFU, LRRFIP1 / Fold change vs veh, LRRFIP1 / RFU, NDUFAF7 / Fold change vs veh, NDUFAF7 / RFU, SLC12A2 / Fold change vs veh, SLC12A2 / RFU, IBTK / Fold change vs veh, IBTK / RFU, ESF1 / Fold change vs veh, ESF1 / Fold change vs veh, TMEM50B / RFU, TAOK1 / Fold change vs veh, TAOK1 / RFU, ACBD3 / Fold change vs veh, ACBD3 / RFU, TMA16 / Fold change vs veh, TMA16 / RFU, RWDD3 / Fold change vs veh, RWDD3 / RFU, BCAT1 / Fold change vs veh, BCAT1 / RFU, EDEM3 / Fold change vs veh, EDEM3 / RFU, TMEM33 / Fold change vs veh, TMEM33 / RFU, WDR75 / Fold change vs veh, WDR75 / RFU, AHCTF1 / Fold change vs veh, AHCTF1 / RFU, TFRC / Fold change vs veh, TFRC / RFU, ZDHHC17 / Fold change vs veh, ZDHHC17 / RFU, NOM1 / Fold change vs veh, NOM1 / RFU, ARL8B / Fold change vs veh, ARL8B / RFU, ZBTB11 / Fold change vs veh, ZBTB11 / RFU, TAMM41 / Fold change vs veh, TAMM41 / RFU, KIAA1704 /// LOC100996395 / Fold change vs veh, KIAA1704 /// LOC100996395 / RFU, ING1 / Fold change vs veh, ING1 / RFU, TRMT61B / Fold change vs veh, TRMT61B / RFU, FUBP3 / Fold change vs veh, FUBP3 / RFU, TP53 / Fold change vs veh, TP53 / RFU, TNKS2 / Fold change vs veh, TNKS2 / RFU, ZFP14 / Fold change vs veh, ZFP14 / RFU, ACTR2 / Fold change vs veh, ACTR2 / RFU, PPP3R1 / Fold change vs veh, PPP3R1 / RFU, PIK3R1 / Fold change vs veh, PIK3R1 / RFU, HNRNPA1 / Fold change vs veh, HNRNPA1 / RFU, RNF170 / Fold change vs veh, RNF170 / RFU, ZNF28 / Fold change vs veh, ZNF28 / RFU, RNGTT / Fold change vs veh, RNGTT / RFU, OGT / Fold change vs veh, OGT / RFU, BRD1 / Fold change vs veh, BRD1 / RFU, MARS / Fold change vs veh, MARS / RFU, ZNF655 / Fold change vs veh, ZNF655 / RFU, FAHD1 / Fold change vs veh, FAHD1 / RFU, BDP1 / Fold change vs veh, BDP1 / RFU, LRRCC1 / Fold change vs veh, LRRCC1 / RFU, ARID1A / Fold change vs veh, ARID1A / RFU, ZNF146 / Fold change vs veh, ZNF146 / RFU, ZNF330 / Fold change vs veh, ZNF330 / RFU, GPN3 / Fold change vs veh, GPN3 / RFU, C9orf123 / Fold change vs veh, C9orf123 / RFU, N4BP2L2 / Fold change vs veh, N4BP2L2 / RFU, ARFIP1 / Fold change vs veh, ARFIP1 / RFU, FAM179B / Fold change vs veh, FAM179B / RFU, BCL10 / Fold change vs veh, BCL10 / RFU, UHRF1BP1L / Fold change vs veh, UHRF1BP1L / RFU, BET1 / Fold change vs veh, BET1 / RFU, CNOT2 / Fold change vs veh, CNOT2 / RFU, ZNF268 / Fold change vs veh, ZNF268 / Fold change vs veh, ZNF507 / RFU, DGCR2 / Fold change vs veh, DGCR2 / RFU, WDSUB1 / Fold change vs veh, WDSUB1 / Fold change vs veh, HSP90B1 /// MIR3652 / RFU, ADSS / Fold change vs veh, ADSS / RFU, GK / Fold change vs veh, GK / RFU, ZNF148 / Fold change vs veh, ZNF148 / RFU, TAF9 / Fold change vs veh, TAF9 / RFU, SLC1A5 / Fold change vs veh, SLC1A5 / RFU, SLMO2 / Fold change vs veh, SLMO2 / RFU, ABCC4 / Fold change vs veh, ABCC4 / RFU, LOC101060439 /// RAP1B / Fold change vs veh, LOC101060439 /// RAP1B / RFU, RFX7 / Fold change vs veh, RFX7 / RFU, GTPBP10 / Fold change vs veh, GTPBP10 / RFU, CNEP1R1 / Fold change vs veh, CNEP1R1 / RFU, BIVM-ERCC5 /// ERCC5 / Fold change vs veh, BIVM-ERCC5 /// ERCC5 / RFU, ILF3 / Fold change vs veh, ILF3 / RFU 11762660_at / Fold change /veh 11762660_at / RFU VCAN (11757783_s_at) / Fold change /veh VCAN (11757783_s_at) / RFU DDX43 (11728927_at) / Fold change /veh DDX43 (11728927_at) / RFU KRT8 (11758188_x_at) / Fold change /veh KRT8 (11758188_x_at) / RFU NKD1 (11759106_at) / Fold change /veh NKD1 (11759106_at) / RFU SRD5A1 (11742802_a_at) / Fold change /veh SRD5A1 (11742802_a_at) / RFU TPSAB1 /// TPSB2 (11721975_s_at) / Fold change /veh TPSAB1 /// TPSB2 (11721975_s_at) / RFU GSTM3 (11746129_a_at) / Fold change /veh GSTM3 (11746129_a_at) / RFU IL23R (11737362_x_at) / Fold change /veh IL23R (11737362_x_at) / RFU TMEM51 (11727254_a_at) / Fold change /veh TMEM51 (11727254_a_at) / RFU PIWIL2 (11732686_x_at) / Fold change /veh PIWIL2 (11732686_x_at) / RFU ORM1 (11744905_x_at) / Fold change /veh ORM1 (11744905_x_at) / RFU CCDC152 (11743942_at) / Fold change /veh CCDC152 (11743942_at) / RFU ECM1 (11717891_a_at) / Fold change /veh ECM1 (11717891_a_at) / RFU IL23R (11748794_a_at) / Fold change /veh IL23R (11748794_a_at) / RFU TNFAIP8L3 (11732012_x_at) / Fold change /veh TNFAIP8L3 (11732012_x_at) / RFU MBOAT4 (11741988_at) / Fold change /veh MBOAT4 (11741988_at) / RFU 11764193_at / Fold change /veh 11764193_at / RFU TMEM53 (11763286_at) / Fold change /veh TMEM53 (11763286_at) / RFU MAGEB2 (11727129_at) / Fold change /veh MAGEB2 (11727129_at) / RFU TMEM200A (11744735_a_at) / Fold change /veh TMEM200A (11744735_a_at) / RFU CCDC152 (11751479_a_at) / Fold change /veh CCDC152 (11751479_a_at) / RFU FAM211A (11726209_a_at) / Fold change /veh FAM211A (11726209_a_at) / RFU RGS16 (11746705_a_at) / Fold change /veh RGS16 (11746705_a_at) / RFU VCAN (11755009_s_at) / Fold change /veh VCAN (11755009_s_at) / RFU RHOB (11743442_s_at) / Fold change /veh RHOB (11743442_s_at) / RFU RGS16 (11720943_a_at) / Fold change /veh RGS16 (11720943_a_at) / RFU RGS16 (11720944_at) / Fold change /veh RGS16 (11720944_at) / RFU, VPS4B / Fold change vs veh, VPS4B / RFU, CREB1 / Fold change vs veh, CREB1 / RFU, DNAJC13 / Fold change vs veh, DNAJC13 / RFU, GNAQ / Fold change vs veh, GNAQ / RFU, CDK5R1 / Fold change vs veh, CDK5R1 / RFU, ZRANB3 / Fold change vs veh, ZRANB3 / RFU, CUL4A / Fold change vs veh, CUL4A / RFU, CCNY / Fold change vs veh, CCNY / RFU, UFL1 / Fold change vs veh, UFL1 / RFU, COG3 / Fold change vs veh, COG3 / RFU, DIAPH2 / Fold change vs veh, DIAPH2 / RFU, SKA2 / Fold change vs veh, SKA2 / RFU, AFF3 / Fold change vs veh, AFF3 / RFU, LMF1 / Fold change vs veh, LMF1 / RFU, IPO11 / Fold change vs veh, IPO11 / RFU, DFFB / Fold change vs veh, DFFB / RFU, FOXP1 / Fold change vs veh, FOXP1 / RFU, CARD8 / Fold change vs veh, CARD8 / RFU, STRN3 / Fold change vs veh, STRN3 / RFU, ADK / Fold change vs veh, ADK / RFU, RASSF2 / Fold change vs veh, RASSF2 / RFU, WIPF1 / Fold change vs veh, WIPF1 / RFU, LARP1B / Fold change vs veh, LARP1B / RFU, RASA1 / Fold change vs veh, RASA1 / RFU, RB1 / Fold change vs veh, RB1 / RFU, PPFIA1 / Fold change vs veh, PPFIA1 / RFU, MAT2A / Fold change vs veh, MAT2A / RFU, CCT5 / Fold change vs veh, CCT5 / RFU, WDR92 / Fold change vs veh, WDR92 / RFU, CUX1 / Fold change vs veh, CUX1 / RFU, TTC7A / Fold change vs veh, TTC7A / RFU, TMEM135 / Fold change vs veh, TMEM135 / RFU, DEPTOR / Fold change vs veh, DEPTOR / RFU, CPM / Fold change vs veh, CPM / RFU, DNAJB6 / Fold change vs veh, DNAJB6 / RFU, CACNA2D3 / Fold change vs veh, CACNA2D3 / RFU, DTX4 / Fold change vs veh, DTX4 / RFU, TFCP2 / Fold change vs veh, TFCP2 / RFU, GMCL1 /// GMCL1P1 / Fold change vs veh, GMCL1 /// GMCL1P1 / RFU, AEBP2 / Fold change vs veh, AEBP2 / RFU, SNHG1 /// SNORD22 /// SNORD25 /// SNORD26 /// SNORD27 /// SNORD28 /// SNORD29 /// SNORD31 / Fold change vs veh, SNHG1 /// SNORD22 /// SNORD25 /// SNORD26 /// SNORD27 /// SNORD28 /// SNORD29 /// SNORD31 / Fold change (Aza/veh), C12orf56 (ProbeSet 11735607_a_at) / Fold change (ACY-1035/veh), C12orf56 (ProbeSet 11735607_a_at) / Fold change (Aza/veh), FGFR1OP (ProbeSet 11751329_s_at) / Fold change (ACY-1035/veh), FGFR1OP (ProbeSet 11751329_s_at) / Fold change (Aza/veh), VPS36 (ProbeSet 11739960_a_at) / Fold change (ACY-1035/veh), VPS36 (ProbeSet 11739960_a_at) / RFU SYPL1 (11715823_x_at) / Fold change /veh SYPL1 (11715823_x_at) / RFU IGFBP7 (11715501_s_at) / Fold change /veh IGFBP7 (11715501_s_at) / RFU REEP3 (11722064_at) / Fold change /veh REEP3 (11722064_at) / RFU IGLL1 (11728026_x_at) / Fold change /veh IGLL1 (11728026_x_at): dose or concentration left out as unconfirmed. Conditions: ProbeSet 11716891_at; LIST B.

`Nc1ccc(-c2cccs2)cc1NC(=O)c1ccc2c(c1)cc(C1CC1)n2CCN1CCOCC1` [ACY-1035]: the “Fold change vs veh, C9orf123” value worked out at 1.03.
